The target of assay [1] is T1, homomeric α1 GlyR (Homo sapiens, UniProt P23415).
T1 construct: gene GLRA1; full-length subunit, pcDNA3.1, transient expression in HEK293A; homopentamer; eGFP from separate plasmid
T1 sequence (P23415 29-457): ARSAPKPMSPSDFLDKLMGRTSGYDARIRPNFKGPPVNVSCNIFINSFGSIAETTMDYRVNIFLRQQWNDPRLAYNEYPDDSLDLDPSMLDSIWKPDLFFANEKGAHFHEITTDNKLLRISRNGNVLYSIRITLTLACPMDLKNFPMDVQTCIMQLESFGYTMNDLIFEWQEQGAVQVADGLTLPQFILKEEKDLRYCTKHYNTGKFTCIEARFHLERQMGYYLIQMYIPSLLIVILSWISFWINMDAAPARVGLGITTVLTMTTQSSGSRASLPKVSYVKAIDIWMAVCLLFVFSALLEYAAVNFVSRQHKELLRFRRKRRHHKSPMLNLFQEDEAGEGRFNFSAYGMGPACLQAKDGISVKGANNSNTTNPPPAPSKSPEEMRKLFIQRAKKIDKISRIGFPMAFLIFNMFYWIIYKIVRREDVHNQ
The assay is described as follows: whole-cell patch clamp, U-tube application, Hill fit of peak currents. The assay is classed as cell-based. An excerpt:
(§1) whole-cell patch clamp, U-tube application, Hill fit of peak currents on homomeric α1 GlyR
(In general: Patch clamp records ionic current or voltage across a cell membrane.)

Assay [2] addresses T2, homomeric α1 GlyR (Homo sapiens, UniProt P23415, S298T).
T2 construct: gene GLRA1; full-length subunit, pcDNA3.1, transient expression in HEK293A; homopentamer; eGFP from separate plasmid
T2 sequence (P23415 29-457 S298T): T1 sequence (P23415 29-457) with S270T
The assay is described as above. The assay is classed as cell-based.
Description: as §1

Substitutions are numbered along the chain they refer to.

Usually EC50 stands for the concentration that produces a half-maximal response. Read a low EC50 as a more potent agent. Take `CNCC(=O)O` [sarcosine]: the EC50 on homomeric α1 GlyR [1] was determined as 14 ± 6 mM; at homomeric α1 GlyR [2] it was 23 ± 3 mM.

Source of the values: PMC7649747, “The startle disease mutation α1S270T predicts shortening of glycinergic synaptic currents” (The Journal of Physiology, 2020).
